The source of these data is patent publication US6645969B1, “Aryl and heteroaryl quinazoline compounds which inhibit CSF-1R receptor tyrosine kinase” (Aventis Pharmaceuticals Inc., priority 1991, dated 2003).

Each structure is given as a SMILES string. pIC50: −log10 of the molar value.

The target of one data set is T1, CSF-1R tyrosine kinase (Homo sapiens, UniProt P07333).
T1 construct: host or cells: unnamed cell lysate ('stimulated lysate')
In words: CSF-1R cell-free autophosphorylation assay. The format is biochemical. Here is the method: CSF-1R Cell-free Autophosphorylation Assay
For a regular 28 tube assay (14 samples per 15 well gel):
In 2 ml eppendorf tube: 140 mg protein A sepharose (5 mg/sample)
Swell in 20 mM Hepes pH 7.5 and wash 2× in Hepes
In 15 ml tube: 2.8 ml lysate lysis buffer: 20 mM Hepes
Protease inhibitors added fresh:
PMSF: 8 mg/ml=[…] in 100% EtOH, store frozen, add 100 λ/10 ml lysis buffer Aprotinin: 10 mg/ml=250× in H2O, store frozen, add 40 λ/10 ml lysis buffer Leupeptin: 1 mg/ml=250× in H2O, store frozen, add 40 λ/10 ml lysis buffer Add washed beads to stimulated lysate and incubate 90 min 4° C. on rotator or shaking prepare 28 compound tubes: make 40 mM solutions of compounds in 100% DMSO make serial dilutions in 50 mM Tris pH 7.5+10 mM MnCl2 aliquot 10λ compound solution into each 1 ml eppendorf reaction tube waiting on ice, control blanks get 10λ buffer Wash beads 1×HNTG, 2×10 mM Tris pH 7.5
2.7λ cold ATP (stock of 10 mM in 50 mM
Vortex, incubate 10 min on ice
Add 45λ 2×SDS-sample buffer, heat 95° C. 6 min
7.5% SDS-PAGE, fix, dry, expose (usually 4 hrs)

The next data set addresses T2, p56^Ick tyrosine kinase (Homo sapiens, UniProt P06239).
T2 construct: samples containing Ick immuno-precipitated from 2×10^6 cells; endogenous in cells; host or cells: Jurkat (human T-cell leukemia, ATCC clone E6-1)
In words: Ick kinase cell-free assay (immunoprecipitated from Jurkat lysate). Type of data set: biochemical. Here is the method:
Ick Kinase: Immunoprecipitated from Jurkat Lysate
B. Cells are grown to 1-1.5×10^6 cells/ml media, pelleted by centrifugation, and lysed in lysis buffer at 10^8 cells/ml buffer (50 mM tris (pH 8), 150 mM NaCl, 5 mM EDTA, 10% glycerol, and 1% NP-40, to which fresh protease and phosphatase inhibitors are added as described above for A431 lysate). Lysates stored at −70° C.
C. Immunoprecipitation: 3-4 mg Protein-A sepharose/sample washed 2×20 mM Hepes (pH 7.5). 1 ul α-Ick antibody (prepared as polyclonals in rabbits using a peptide antigen corresponding to the N-terminal region of human Ick) per sample added to the Protein-A and shaken 20 min at room temperature. After washing 3× HNTG, lysate from 2×10^6 cells is added to each sample, rotated 2 hr at 4° C., then washed 3× HNTG (2nd wash containing 0.5 N NaCl). If all samples contain identical concentrations of the enzyme, then the immuno-precipitation can be done in bulk and alloquoted to appropriate numbers of tubes prior to assay set-up.
Samples are analyzed by 5-15% SDS-PAGE and autoradiography as described for EGFR kinase assays.

T1 sequence (P07333 20-972): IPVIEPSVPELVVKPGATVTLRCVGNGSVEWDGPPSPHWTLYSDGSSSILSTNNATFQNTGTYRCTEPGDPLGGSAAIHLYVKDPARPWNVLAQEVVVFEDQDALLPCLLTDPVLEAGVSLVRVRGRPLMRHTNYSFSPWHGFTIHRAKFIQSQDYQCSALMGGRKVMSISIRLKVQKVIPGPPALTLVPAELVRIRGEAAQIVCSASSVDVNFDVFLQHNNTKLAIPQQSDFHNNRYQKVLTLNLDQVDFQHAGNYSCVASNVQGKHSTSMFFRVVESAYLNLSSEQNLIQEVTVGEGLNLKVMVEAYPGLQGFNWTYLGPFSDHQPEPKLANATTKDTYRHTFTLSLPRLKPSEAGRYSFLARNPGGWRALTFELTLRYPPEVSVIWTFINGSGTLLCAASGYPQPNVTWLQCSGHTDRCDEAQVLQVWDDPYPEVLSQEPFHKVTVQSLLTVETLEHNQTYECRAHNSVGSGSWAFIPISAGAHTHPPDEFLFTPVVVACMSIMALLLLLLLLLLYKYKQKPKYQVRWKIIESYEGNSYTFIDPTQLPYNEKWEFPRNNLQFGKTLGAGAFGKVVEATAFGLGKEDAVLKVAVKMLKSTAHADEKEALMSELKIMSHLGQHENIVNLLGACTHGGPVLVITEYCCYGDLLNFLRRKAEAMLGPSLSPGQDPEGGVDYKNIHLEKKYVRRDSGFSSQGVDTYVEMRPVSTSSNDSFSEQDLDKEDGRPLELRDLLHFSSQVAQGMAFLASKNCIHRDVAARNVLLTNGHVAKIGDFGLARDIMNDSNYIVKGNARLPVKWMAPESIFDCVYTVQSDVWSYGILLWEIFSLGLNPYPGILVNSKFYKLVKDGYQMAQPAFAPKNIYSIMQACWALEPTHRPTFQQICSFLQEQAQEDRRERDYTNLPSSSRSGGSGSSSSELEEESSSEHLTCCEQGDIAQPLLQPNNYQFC
T2 sequence (P06239 whole entry): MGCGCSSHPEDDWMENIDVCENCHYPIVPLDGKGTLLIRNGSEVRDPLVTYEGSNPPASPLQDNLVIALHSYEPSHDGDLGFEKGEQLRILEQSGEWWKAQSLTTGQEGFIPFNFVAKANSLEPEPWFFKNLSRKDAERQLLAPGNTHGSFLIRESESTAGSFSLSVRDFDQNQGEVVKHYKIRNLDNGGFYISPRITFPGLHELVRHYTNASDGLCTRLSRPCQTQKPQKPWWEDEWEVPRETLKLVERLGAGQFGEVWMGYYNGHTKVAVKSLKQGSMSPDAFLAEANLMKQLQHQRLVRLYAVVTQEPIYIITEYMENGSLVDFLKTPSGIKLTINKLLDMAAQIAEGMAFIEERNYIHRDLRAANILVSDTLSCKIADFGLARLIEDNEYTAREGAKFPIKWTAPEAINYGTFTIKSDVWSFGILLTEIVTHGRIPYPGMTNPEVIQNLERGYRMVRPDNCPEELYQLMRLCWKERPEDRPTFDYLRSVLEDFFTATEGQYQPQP

What is called pIC50 is the IC50 on a negative log10 scale, so that one unit is a factor of ten. `COc1cc2ncnc(-c3ccsc3)c2cc1OC`: the negative logarithm of the IC50 (pIC50) against CSF-1R tyrosine kinase was 5.22; on p56^Ick tyrosine kinase it was under 5.00.
Consider `COc1cc2ncnc(N(C)c3ccccc3)c2cc1OC`, for which the negative-log IC50 (pIC50) on CSF-1R tyrosine kinase was 6.30; against p56^Ick tyrosine kinase, under 4.30.
As to `CCN(c1ccccc1)c1ncnc2cc(OC)c(OC)cc12`, the results for the pIC50 against CSF-1R tyrosine kinase and against p56^Ick tyrosine kinase were 5.40 and under 4.30, respectively.
With `COc1cc(Nc2ncnc3cc(OC)c(OC)cc23)cc(OC)c1`, the pIC50 at CSF-1R tyrosine kinase was under 4.00.
On the same count and under the same terms, for `COc1cc2ncnc(Nc3cc(OC)c(OC)c(OC)c3)c2cc1OC` the value was under 4.00.
`COc1cc2ncnc(NC3CCCCC3)c2cc1OC` had a pIC50 on CSF-1R tyrosine kinase of under 4.30.
The same measure, in the same setting: for `COc1cc2ncnc(Nc3ccc4ccccc4c3)c2cc1OC` the value was under 4.30.
With `COc1cc2ncnc(Nc3cccc4ccccc34)c2cc1OC`, the negative-log IC50 (pIC50) was under 4.30 against CSF-1R tyrosine kinase and 5.60 on p56^Ick tyrosine kinase.
Consider `COc1ccc(Nc2ncnc3cc(OC)c(OC)cc23)cc1OC`, for which the pIC50 against CSF-1R tyrosine kinase was under 4.70.
In the case of `COc1cc2ncnc(NCc3ccccc3)c2cc1OC`, the pIC50 was at most 4.70 at CSF-1R tyrosine kinase and 4.70 at p56^Ick tyrosine kinase.
For `COc1cc2ncnc(Sc3cccc(Cl)c3)c2cc1OC` the same measures were 5.52 and 5.60.
Take `COc1cccc(Sc2ncnc3cc(OC)c(OC)cc23)c1`: the pIC50 at CSF-1R tyrosine kinase is 6.00; against p56^Ick tyrosine kinase it was 5.30.
With `COc1cc2ncnc(Oc3cc(OC)c(OC)c(OC)c3)c2cc1OC`, the pIC50 at CSF-1R tyrosine kinase is under 4.30; against p56^Ick tyrosine kinase, 5.30.
For `COc1cc2ncnc(-c3cccc(-c4ccccc4)c3)c2cc1OC` the same measures were 4.82 and 5.54.
Broadly, the melting point is the temperature of the solid-liquid transition. The compound `COc1cc2ncnc(Oc3cccc(Cl)c3)c2cc1OC` [Example 1, 4-(3-Chlorophenoxy)-6,7-dimethoxyquinazoline] came in with a melting point of 152 to 153 °C.
Take `COc1cc2ncnc(Oc3cccc(Cl)c3)c2cc1OC` [drawing 19]: the pIC50 against CSF-1R tyrosine kinase is under 4.30; on p56^Ick tyrosine kinase, 6.00.
